Values of other authors as cited in article PMC7207041 (Medicinal chemistry research : an international journal for …, 2020).

Assays:
Nrf2-regulated proteins = settings: WT mice; ref Walsh et al. 2014
[1] = tested on: ARE-mediated genes in HepG2 cells; settings: read-out: EC50, activation of ARE-mediated genes, ref Hu et al. 2013b
[2] = tested on: cultured human kidney cells (HEK293); settings: HEK293, 50 and 100 μM; ref Wen et al. 2015
[3] = ref Lazzara et al. 2020
[4] = human liver microsomes; ref Lazzara et al. 2020
Keap1 Kelch domain = settings: read-out: Kd in ITC assay; ref Winkel et al. 2015
[5] = human, mouse, and rat; ref Winkel et al. 2015
GCLC and NQO1 = settings: mouse, administered together with a cytochrome P450 inhibitor; ref Winkel et al. 2015
Keap1-Nrf2 PPI [6] = settings: read-out: IC50 in FP assay; ref Jiang et al. 2018
[7] = tested on: LPS-induced cardiomyopathy; settings: ref Jiang et al. 2018
Keap1-Nrf2 PPI [8] = settings: same FP assay conditions; ref Tran et al. 2019

COC(=O)[C@]12CCC(C)(C)C[C@H]1[C@H]1C(=O)C=C3[C@@]4(C)C=C(C#N)C(=O)C(C)(C)[C@@H]4CC[C@@]3(C)[C@]1(C)CC2 [CDDO-Me, bardoxolone methyl]
number of proteins changed by treatment (Nrf2-regulated proteins): 43 proteins

O=C(O)[C@H]1CCCC[C@H]1C(=O)N1CCc2ccccc2[C@H]1CN1C(=O)c2ccccc2C1=O [Compound 1]
EC50 [1]: 18 µM | HO-1 protein expression enhancement [2]: 3.5 fold | TRX1 protein expression enhancement [2]: 2–4 fold

COc1ccc(S(=O)(=O)N(CC(F)(F)F)c2cnc(N(CC(=O)O)S(=O)(=O)c3ccc(OC)cc3)c3ccccc23)cc1 [Compound 11]
logD7.4 [3]: 0.5 | metabolic stability t1/2 [4]: 2.27 h | cellular levels of Nrf2 and NQO1 expression (Nrf2 target genes; compared with 10, ref Lazzara et al. 2020): remarkable increase

Cc1cc(C)c(C)c(S(=O)(=O)Nc2ccc(N3CC[C@H](C(=O)O)C3)c3ccccc23)c1C [Compound 12]
Kd (Keap1 Kelch domain): 6 µM | metabolic stability in liver microsomes [5]: low metabolic stability | hepatic mRNA levels of GCLC and NQO1 (GCLC and NQO1): significantly increased

C=CCOC(=O)/N=c1\oc2cc(N(CC)CC)ccc2cc1-c1nc2ccccc2s1 [Compound 25]
IC50 (Keap1-Nrf2 PPI [6]): 5.1 µM | effect in mouse model of LPS-induced cardiomyopathy [7]: cardiac protective effect | mRNA levels of Nrf2 target genes (HO-1 and NQO1) (Nrf2 target genes; H9c2 cardiac cells, ref Jiang et al. 2018): significant increase

O=[N+]([O-])c1ccc(Sc2nnc(COc3ccccc3)n2-c2ccccc2)c2ncccc12 [Compound 30]
Comparative assessment by Bach et. al. FP (Ki μM) (Keap1-Nrf2 PPI [8]): NA (≤77) | expression of Nrf2-responsive proteins NQO1 and GCLM (Nrf2 target genes; ref Kazantsev et al. 2014): induced expression
